From US6746678B1, “Method of treating neurological diseases and etiologically related symptomology using carbonyl trapping agents in combination with medicaments” (priority 1991, dated 2004)

Columns and labels:
myocardial glutathione = settings: subsequent to experimental ischemia and reperfusion; cited from earlier work
[1] = test system: plasma cysteine, plasma glutathione and red blood cell glutathione; settings: in vivo; cited from earlier work
[2] = test system: left median and ulnar nerves; assay: Nerve conduction studies on Subject 1 in the clinical trial of PABA with antioxidant and vitamin co-agents; assay type: in vivo, human; settings: for Latency: distal latency; for Latency / Amplitude / Conduction velocity: May 6, 1992 study; for Change in amplitude / Change in conduction velocity / Change in distal latency: May 6, 1992 vs Jun. 20, 1988
Protocol: Subject 1 is an individual and having hereditary motor and sensory neuropathy. The subject's family has the X-linked subvariety of the disease. All of the composition ingredients of this example were administered via the oral route. On Sep. 1, 1990 Subject 1 began taking three 100 mg tablets of p-aminobenzoic acid per day. This daily dosage consisted of single 100 mg tablets (Schiff Products, Moonachie, N.J.) taken one at a time approximately every eight hours. Also initiated at this time and taken three times per day: DL-methionine, 500 mg and vitamin E (as mix tocopherols in oil-based capsules), 200 I.U. Their weight at the time was approximately 165 lbs. The daily dosage times were approximately 8:00 AM, 4:00 PM and 11:30 PM. This original low dosage of PABA was selected in part as a check to ensure no adverse immunologic reaction. Symptoms of allergic reaction such as bronchial constriction or skin rash were not observed. […] On Oct. 1, 1990 Subject 1 began taking a total of 600 mg PABA per day by doubling the original dosage noted above; 200 mg taken three times per day. Also taken with PABA: DL-methionine, 500 mg and vitamin E, 200 I.U. On Jan. 1, 1991 Subject 1 began taking three 550 mg capsules of PABA (Solgar Co., Lynbrook, N.Y.) per day, one approximately every eight hours. DL-Methionine use was doubled to 1,000 mg every eight hours. Likewise, vitamin E deosage was doubled to 400 I.U. every eight hours. In addition, the following dietary supplements were initiated and taken once per day (4:00 PM): On Feb. 24, 1991 Subject 1 began taking six 550 mg capsules of PABA per day, two every eight hours plus the dietary supplement combination initiated January 1st. DL-Methionine and vitamin E dosage were continued as initiated January 1st; 3,000 mg and 1,200 I.U. total daily, respectively. Dosage of additional dietary supplements was also continued as initiated January 1st, with the addition of 100 mg vitamin B1 per day. Also, selenium daily dosage was reduced to 12 ug per day. As of May 1, 1991 consumption of pantothenic acid and vitamin B1 were tripled to 250 mg 3× daily and 100 mg 3× daily, respectively, taken with PABA. Also initiated now, vitamin B6, 100 mg taken 3× daily with PABA. As of Jul. 1, 1991 the methionine product was switched to “L-Methionine 500 mg Caps with Vitamin B6” (Nature's Plus, Farmingdale, N.Y.). Each capsule has the free form of the L-amino acid and 50 mg vitamin B6. This dose of vitamin B6 is in addition to the 300 mg/day noted in the preceding paragraph. As of Jul. 26, 1991 the vitamin E product was switched to “Natural Dry All E, 400 I.U.” (Schiff Products, Moonachie, N.J.). One of these dry powder capsules is taken 3× daily with PABA, as before. As of Aug. 7, 1991 daily doses of PABA, methionine and vitamin E were increased by 50%. Thus starting at this time, three 550 mg PABA capsules, three 500 mg methionine capsules, one 400 I.U. dry vitamin E and a 200 I.U. dry vitamin E capsule were taken at a time, three times per day. Daily totals of these agents were now: PABA, 4.95 gm; methionine, 4.5 gm; and vitamin E, 1,800 I.U. Other agents were taken as before. As of Nov. 22, 1991 the daily dose of PABA was increased. Thus starting at this time, four 550 mg PABA capsules were taken at a time, three times per day. Daily total of PABA was now 6.6 gm. Other agents were taken as before. On Jun. 20, 1988 Subject 1 participated in a nerve conduction research study at the National Institutes of Health. Nerve conduction data was recorded from the left median and ulnar nerves, which included conduction velocity, amplitude and distal latency for each nerve. On May 6, 1992 Subject 1 was tested again at the office of a neurologist in Bryn Mawr, Pa. This experimental drug trial involved a step-by-step increase in dosages over an extended period. […]

[3] = Check for adverse immunologic or clinical reaction to low-dose oral PABA in Subject 1; assay type: in vivo, human; settings: oral PABA 100 mg three times per day with DL-methionine 500 mg and vitamin E 200 I.U.
Protocol: Subject 1 is an individual and having hereditary motor and sensory neuropathy. The subject's family has the X-linked subvariety of the disease. All of the composition ingredients of this example were administered via the oral route.
On Sep. 1, 1990 Subject 1 began taking three 100 mg tablets of p-aminobenzoic acid per day. This daily dosage consisted of single 100 mg tablets (Schiff Products, Moonachie, N.J.) taken one at a time approximately every eight hours. Also initiated at this time and taken three times per day: DL-methionine, 500 mg and vitamin E (as mix tocopherols in oil-based capsules), 200 I.U. Their weight at the time was approximately 165 lbs. The daily dosage times were approximately 8:00 AM, 4:00 PM and 11:30 PM. This original low dosage of PABA was selected in part as a check to ensure no adverse immunologic reaction. Symptoms of allergic reaction such as bronchial constriction or skin rash were not observed.

Row | Structure (SMILES) | Increase in myocardial glutathione (myocardial glutathione) | Levels of plasma cysteine, plasma glutathione and red blood cell glutathione [1] | Latency ([2]; left median nerve, after PABA up to 6.6 gm/day with co-agents, pre-treatment Jun. 20, 1988 value 12.4) | Amplitude ([2]; left median nerve, after PABA up to 6.6 gm/day with co-agents, pre-treatment Jun. 20, 1988 value 0.4) | Conduction velocity ([2]; left median nerve, after oral PABA raised stepwise from 300 mg/day to 6.6 gm/day (Sep 1990-May 1992) with methionine, vitamin E and vitamin co-agents, Subject 1, X-linked HMSN, pre-treatment Jun. 20, 1988 value 28) | Change in amplitude ([2]; left median nerve) | Change in conduction velocity ([2]; left median nerve) | Change in distal latency ([2]; left median nerve) | Latency ([2]; left ulnar nerve, after PABA up to 6.6 gm/day with co-agents, pre-treatment Jun. 20, 1988 value 13.8) | Amplitude ([2]; left ulnar nerve, after PABA up to 6.6 gm/day with co-agents, pre-treatment Jun. 20, 1988 value 1.3) | Conduction velocity ([2]; left ulnar nerve, after PABA up to 6.6 gm/day with co-agents, pre-treatment Jun. 20, 1988 value 29) | Change in amplitude ([2]; left ulnar nerve) | Change in conduction velocity ([2]; left ulnar nerve) | Change in distal latency ([2]; left ulnar nerve) | Clinical reaction to PABA [3] | Symptoms of allergic reaction such as bronchial constriction or skin rash [3]
1 | CC(=O)N[C@@H](CS)C(=O)O [N-acetyl-cysteine] | 100 fold | increase |  |  |  |  |  |  |  |  |  |  |  |  |  | 
2 | Nc1ccc(C(=O)O)cc1 [PABA, 4-Aminobenzoic acid] |  |  | 13.1 ms | 0.4 mV | 28.2 meters/sec | remained unchanged | remained unchanged | increased (that is, worsened) by six percent | 13.1 ms | 2.4 mV | 31.8 meters/sec | improved by eighty-five percent | improved by ten percent | improved by five percent | no clinical reaction | not observed
